Among the data in patent publication US7115664B2, “Peptidomimetic ligands for cellular receptors and ion channels” (Sepracor Inc., priority 2000, dated 2006) are IC50 values, retold here.

The target in one assay is calcium channel (type N) (Rattus norvegicus, UniProt Q02294). Briefly: Calcium channel receptor binding, type N. The following applies: read-out: Ca (type N) (IC50). The method, then:
(§1) The opioid (μ) receptor binding capabilities of compounds described herein were determined according to the procedures outlined by Wang et al. (FEBS Letters 1994, 338, 217). The sodium channel receptor binding capabilities of compounds described herein were determined according to the procedures outlined by Catterall et al. (J. Biol. Chem. 1981, 256, 8922). The calcium channel receptor binding capabilities of compounds described herein were determined according to the procedures outlined by Gould et al. (Proc. Natl. Acad. Sci. USA 1982, 79, 3656), Ehlert et al. (Life Sci. 1982, 30, 2191), Reynolds et al. (J. Pharmacol. Exp. Ther. 1986, 237, 731), Moresco et al. (Neurobiology of Aging 1990, II, 433) and Schoemaker et al. (Eur. J. Pharmacol. 1985, III, 273). The potassium channel receptor binding capabilities of compounds described herein were determined according to the procedures outlined by Taylor et al. (J. Biol. Chem. 1984, 259, 13957), Rehm et al. (Proc. Natl. Acad. Sci. USA 1988, 85, 4919), Vasquez et al. (J. Biol. Chem. 1990, 265, 15564) and Mourre et al. (Brain Research 1986, 382, 239).

Assay [1] concerns the target potassium channel [KA], [KV] or [SKCa]. Briefly: Potassium channel receptor binding. Conditions: read-out: K** (IC50). How it is done: as §1
A further assay addresses sodium channel (site 2). Briefly: Sodium channel receptor binding (site 2). The following applies: sodium channel site 2 binding; read-out: Na (site 2) (IC50). The method, then: as §1
A further assay concerns the target opioid (μ) receptor (Homo sapiens, UniProt P35372). Briefly: Opioid (μ) receptor binding.
Source text: Another assay useful in the present invention concerns determining the ability of a ligand to bind to a biological receptor utilizing a technique well known in the art referred to as a radioligand binding assay. This assay accurately determines the specific binding of a radioligand to a targeted receptor through the delineation of its total and nonspecific binding components. Total binding is defined as the amount of radioligand that remains following the rapid separation of the radioligand bound in a receptor preparation (cell homogenates or recombinate receptors) from that which is unbound. The nonspecific binding component is defined as the amount of radioligand that remains following separation of the reaction mixture consisting of receptor, radioligand and an excess of unlabeled ligand. Under this condition, the only radioligand that remains represents that which is bound to components other that receptor. The specific radioligand bound is determined by subtracting the nonspecific from total radioactivity bound. For a specific example of radioligand binding assay for μ-opioid receptor, see Wang, J. B. et al. FEBS Letters 1994, 338, 217.
as §1

Sequence of opioid (μ) receptor (P35372 whole entry): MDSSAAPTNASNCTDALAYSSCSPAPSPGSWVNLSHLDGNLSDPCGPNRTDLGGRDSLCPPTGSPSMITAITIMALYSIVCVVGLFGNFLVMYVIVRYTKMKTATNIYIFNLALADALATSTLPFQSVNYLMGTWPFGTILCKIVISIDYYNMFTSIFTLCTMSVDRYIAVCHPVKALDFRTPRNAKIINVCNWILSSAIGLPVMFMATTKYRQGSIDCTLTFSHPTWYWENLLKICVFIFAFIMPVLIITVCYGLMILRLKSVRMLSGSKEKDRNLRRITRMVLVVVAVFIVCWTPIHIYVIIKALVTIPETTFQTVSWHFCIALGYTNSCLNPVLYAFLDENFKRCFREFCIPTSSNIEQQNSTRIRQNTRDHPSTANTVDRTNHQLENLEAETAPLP
Sequence of calcium channel (type N) (Q02294 whole entry): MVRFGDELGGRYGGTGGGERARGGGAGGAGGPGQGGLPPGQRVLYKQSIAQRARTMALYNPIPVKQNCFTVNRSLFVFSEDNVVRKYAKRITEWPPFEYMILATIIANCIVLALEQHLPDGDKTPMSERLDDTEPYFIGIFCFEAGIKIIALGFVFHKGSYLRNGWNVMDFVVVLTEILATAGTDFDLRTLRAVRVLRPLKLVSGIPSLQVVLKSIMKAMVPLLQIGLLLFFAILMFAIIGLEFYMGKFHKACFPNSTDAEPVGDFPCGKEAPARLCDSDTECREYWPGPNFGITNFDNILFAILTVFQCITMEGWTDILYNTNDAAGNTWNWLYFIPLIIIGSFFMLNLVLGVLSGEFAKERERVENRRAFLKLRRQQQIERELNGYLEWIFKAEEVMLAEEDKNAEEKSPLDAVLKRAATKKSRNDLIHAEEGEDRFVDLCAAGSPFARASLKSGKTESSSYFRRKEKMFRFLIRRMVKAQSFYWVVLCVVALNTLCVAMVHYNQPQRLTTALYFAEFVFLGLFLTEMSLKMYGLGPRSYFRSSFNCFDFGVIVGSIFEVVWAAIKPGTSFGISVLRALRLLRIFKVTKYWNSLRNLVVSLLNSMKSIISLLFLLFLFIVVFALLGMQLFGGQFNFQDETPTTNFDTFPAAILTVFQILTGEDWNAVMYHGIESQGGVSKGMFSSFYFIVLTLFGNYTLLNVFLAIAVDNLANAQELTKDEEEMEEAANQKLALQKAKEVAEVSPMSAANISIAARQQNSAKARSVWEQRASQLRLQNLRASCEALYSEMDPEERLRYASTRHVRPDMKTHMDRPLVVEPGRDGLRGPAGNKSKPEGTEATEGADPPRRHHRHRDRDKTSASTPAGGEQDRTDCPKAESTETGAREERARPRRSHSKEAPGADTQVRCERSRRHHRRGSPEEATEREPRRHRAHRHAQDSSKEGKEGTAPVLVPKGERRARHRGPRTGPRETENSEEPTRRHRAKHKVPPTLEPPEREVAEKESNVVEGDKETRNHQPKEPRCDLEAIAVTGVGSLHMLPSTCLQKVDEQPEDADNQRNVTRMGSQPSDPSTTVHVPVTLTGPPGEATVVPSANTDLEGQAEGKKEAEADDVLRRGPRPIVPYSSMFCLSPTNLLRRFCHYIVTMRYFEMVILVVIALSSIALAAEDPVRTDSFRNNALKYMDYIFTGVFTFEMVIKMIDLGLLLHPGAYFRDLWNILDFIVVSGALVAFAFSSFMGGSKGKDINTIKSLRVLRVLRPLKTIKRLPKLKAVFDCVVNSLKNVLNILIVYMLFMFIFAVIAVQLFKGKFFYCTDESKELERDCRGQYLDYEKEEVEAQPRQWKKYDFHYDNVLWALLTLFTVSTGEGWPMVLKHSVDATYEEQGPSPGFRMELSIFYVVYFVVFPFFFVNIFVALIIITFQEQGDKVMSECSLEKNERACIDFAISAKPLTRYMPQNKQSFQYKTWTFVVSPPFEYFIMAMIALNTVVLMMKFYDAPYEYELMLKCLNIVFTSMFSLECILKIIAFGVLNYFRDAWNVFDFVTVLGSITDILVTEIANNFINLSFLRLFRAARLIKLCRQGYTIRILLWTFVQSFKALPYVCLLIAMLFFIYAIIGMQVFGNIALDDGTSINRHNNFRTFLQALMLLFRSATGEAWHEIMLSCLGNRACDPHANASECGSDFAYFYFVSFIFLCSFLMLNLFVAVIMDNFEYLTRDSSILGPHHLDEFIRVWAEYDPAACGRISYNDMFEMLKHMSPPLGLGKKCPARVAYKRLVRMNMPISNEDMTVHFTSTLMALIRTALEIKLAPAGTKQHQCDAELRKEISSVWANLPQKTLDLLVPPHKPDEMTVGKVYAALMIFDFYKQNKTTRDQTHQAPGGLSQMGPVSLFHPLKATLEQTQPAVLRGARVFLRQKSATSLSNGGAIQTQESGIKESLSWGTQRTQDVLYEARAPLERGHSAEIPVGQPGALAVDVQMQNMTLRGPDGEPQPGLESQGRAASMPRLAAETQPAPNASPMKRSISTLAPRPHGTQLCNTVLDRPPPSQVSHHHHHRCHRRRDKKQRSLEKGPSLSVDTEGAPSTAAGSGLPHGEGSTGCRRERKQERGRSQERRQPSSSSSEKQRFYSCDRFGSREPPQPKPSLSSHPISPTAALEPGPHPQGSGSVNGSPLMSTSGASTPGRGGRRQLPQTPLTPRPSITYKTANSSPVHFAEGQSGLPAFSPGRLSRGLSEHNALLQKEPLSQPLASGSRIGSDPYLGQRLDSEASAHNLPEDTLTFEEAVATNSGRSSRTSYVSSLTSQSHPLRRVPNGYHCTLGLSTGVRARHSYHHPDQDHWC
Sequence of calcium channel (type N) (P54287 whole entry partner): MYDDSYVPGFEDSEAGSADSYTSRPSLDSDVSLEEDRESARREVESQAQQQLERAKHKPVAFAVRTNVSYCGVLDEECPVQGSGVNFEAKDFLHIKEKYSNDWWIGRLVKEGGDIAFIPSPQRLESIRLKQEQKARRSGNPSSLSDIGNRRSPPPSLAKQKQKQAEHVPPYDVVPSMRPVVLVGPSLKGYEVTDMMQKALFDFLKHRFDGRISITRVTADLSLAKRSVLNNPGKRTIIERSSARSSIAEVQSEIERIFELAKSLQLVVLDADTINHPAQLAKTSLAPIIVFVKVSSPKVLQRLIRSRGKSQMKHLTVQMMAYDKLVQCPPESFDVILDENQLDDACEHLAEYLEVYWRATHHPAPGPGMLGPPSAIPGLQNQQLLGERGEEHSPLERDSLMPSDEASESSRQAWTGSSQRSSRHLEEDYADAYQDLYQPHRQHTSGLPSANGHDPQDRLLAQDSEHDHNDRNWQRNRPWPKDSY
Sequence of calcium channel (type N) (P54290 25-944 partner limits assumed): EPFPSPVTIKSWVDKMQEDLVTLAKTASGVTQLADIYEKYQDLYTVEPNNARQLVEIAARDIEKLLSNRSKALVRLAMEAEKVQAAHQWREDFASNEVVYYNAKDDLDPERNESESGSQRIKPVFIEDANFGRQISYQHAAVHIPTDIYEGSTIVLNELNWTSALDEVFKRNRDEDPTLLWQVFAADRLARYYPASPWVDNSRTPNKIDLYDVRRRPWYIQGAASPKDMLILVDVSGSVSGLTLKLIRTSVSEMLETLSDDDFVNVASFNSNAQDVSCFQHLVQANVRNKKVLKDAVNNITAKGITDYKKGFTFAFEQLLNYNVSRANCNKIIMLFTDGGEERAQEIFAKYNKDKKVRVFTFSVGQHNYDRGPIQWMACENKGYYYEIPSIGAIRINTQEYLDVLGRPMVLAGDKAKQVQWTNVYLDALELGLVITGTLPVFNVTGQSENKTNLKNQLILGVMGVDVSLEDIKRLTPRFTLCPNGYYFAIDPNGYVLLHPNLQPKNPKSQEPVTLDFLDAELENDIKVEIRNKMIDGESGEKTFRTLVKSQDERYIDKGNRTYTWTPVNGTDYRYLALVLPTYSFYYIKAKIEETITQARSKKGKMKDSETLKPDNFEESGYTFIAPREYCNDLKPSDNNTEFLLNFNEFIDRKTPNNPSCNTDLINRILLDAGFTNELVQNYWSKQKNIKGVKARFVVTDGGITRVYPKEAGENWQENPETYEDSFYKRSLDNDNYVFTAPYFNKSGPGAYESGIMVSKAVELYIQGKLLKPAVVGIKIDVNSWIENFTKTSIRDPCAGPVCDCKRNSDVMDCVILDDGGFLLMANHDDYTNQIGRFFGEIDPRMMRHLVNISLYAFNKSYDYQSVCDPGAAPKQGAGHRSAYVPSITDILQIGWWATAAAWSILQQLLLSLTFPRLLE
Sequence of calcium channel (type N) (P54290 945-1091 partner limits assumed): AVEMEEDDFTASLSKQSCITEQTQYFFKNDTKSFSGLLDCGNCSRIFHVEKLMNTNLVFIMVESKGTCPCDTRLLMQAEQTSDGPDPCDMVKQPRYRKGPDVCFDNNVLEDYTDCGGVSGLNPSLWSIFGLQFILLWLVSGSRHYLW

What is called IC50 is the point on the concentration scale where inhibition reaches its midpoint. Consider `CC(C)(C)[C@H](NC(=O)Nc1cccc(C(F)(F)F)c1)C(=O)N[C@@H]1CCN(Cc2ccccc2)C1` [Compound 3a, N-(1-Benzyl-pyrrolidin-3-(R)-yl)-3,3-dimethyl-2-(S)-[3-(3-trifluoromethyl-phenyl)-ureido]-butyramide], for which the IC50 at calcium channel (type N) is > 1000 nM; in assay [1], > 1000 nM; on sodium channel (site 2), < 1000 nM; at opioid (μ) receptor, > 1000 nM.

As to `CC(C)(C)[C@H](NC(=O)Nc1cccc(C(F)(F)F)c1)C(=O)N[C@H]1CCN(Cc2ccccc2)C1` [Compound 3b, N-(1-Benzyl-pyrrolidin-3-(S)-yl)-3,3-dimethyl-2-(S)-[3-(3-trifluoromethyl-phenyl)-ureido]-butyramide], the IC50 was > 1000 nM at calcium channel (type N), > 1000 nM in assay [1], < 100 nM at sodium channel (site 2) and < 1000 nM on opioid (μ) receptor.

With `CC(C)(C)[C@H](NC(=O)Nc1cc(F)ccc1F)C(=O)N[C@H]1CCN(Cc2ccccc2)C1` [Compound 3c, N-(1-Benzyl-pyrrolidin-3-(S)-yl)-2-(S)-[3-(2,5-difluoro-phenyl)-ureido]-3,3-dimethyl-butyramide], the 50% inhibitory concentration (IC50) at calcium channel (type N) is > 1000 nM; in assay [1], > 1000 nM; on sodium channel (site 2), < 1000 nM; at opioid (μ) receptor, > 1000 nM.

`CC(C)(C)[C@H](NC(=O)Nc1cc(F)ccc1F)C(=O)N[C@@H]1CCN(Cc2ccccc2)C1` [Compound 3d, N-(1-Benzyl-pyrrolidin-3-(R)-yl)-2-(S)-[3-(2,5-difluoro-phenyl)-ureido]-3,3-dimethyl-butyramide]: the concentration for half-maximal inhibition (IC50) is > 1000 nM on calcium channel (type N), > 1000 nM in assay [1], < 1000 nM at sodium channel (site 2) and > 1000 nM on opioid (μ) receptor.

For the compound `O=C(NC1CCN(Cc2ccccc2)CC1)[C@@H]1Cc2ccccc2CN1C(=O)Nc1cccc(C(F)(F)F)c1` [Compound 3e, 3,4-Dihydro-1H-isoquinoline-2,3-dicarboxylic acid 3-(S)-[(1-benzyl-piperidin-4-yl)-amide] 2-[(3-trifluoromethyl-phenyl)-amide]], the IC50 on calcium channel (type N) was > 1000 nM; in assay [1], > 1000 nM; on sodium channel (site 2), < 100 nM; on opioid (μ) receptor, > 1000 nM.

As for `O=C(NC1CCN(Cc2ccccc2)CC1)[C@@H]1Cc2ccccc2CN1C(=O)Nc1ccc(OC(F)(F)F)cc1` [Compound 3f, 3,4Dihydro-1H-isoquinoline-2,3-dicarboxylic acid 3-(S)-[(1-benzyl-piperidin-4-yl)-amide] 2-[(4-trifluoromethoxy-phenyl)-amide]], the half-maximal inhibitory concentration (IC50) on calcium channel (type N) was > 1000 nM; in assay [1], > 1000 nM; at sodium channel (site 2), < 100 nM; on opioid (μ) receptor, > 1000 nM.

Turning to `CN(C)CCN(Cc1ccccc1)C(=O)[C@@H]1Cc2ccccc2CN1C(=O)Nc1cccc(C(F)(F)F)c1` [Compound 3g, 3,4-Dihydro-1H-isoquinoline-2,3-dicarboxylic acid 3-(S)-[benzyl-(2-dimethylamino-ethyl)-amide] 2-[(3-trifluoromethyl-phenyl)-amide]], the IC50 at calcium channel (type N) was > 1000 nM; in assay [1], > 1000 nM; at sodium channel (site 2), < 100 nM; on opioid (μ) receptor, > 1000 nM.

Take `CN(C)CCN(Cc1ccccc1)C(=O)[C@@H]1Cc2ccccc2CN1C(=O)Nc1ccc(OC(F)(F)F)cc1` [Compound 3h, 3,4-Dihydro-1H-isoquinoline-2,3-dicarboxylic acid 3-(S)-[benzyl-(2-dimethylamino-ethyl)-amide] 2-[(4-trifluoromethoxy-phenyl)-amide]]: the half-inhibitory concentration (IC50) at calcium channel (type N) was > 1000 nM; in assay [1] it was > 1000 nM; on sodium channel (site 2), < 100 nM; at opioid (μ) receptor it was > 1000 nM.

In the case of `CC(C)(C)C(NC(=O)Nc1cccc(C(F)(F)F)c1)C(=O)NC(CN)Cc1ccccc1` (centres unmarked) [Compound 4, N-(2-Amino-1-benzyl-ethyl)-3,3-dimethyl-2-[3-(3-trifluoromethyl-phenyl)ureido]-butyramide], the IC50 is > 1000 nM on calcium channel (type N), > 1000 nM in assay [1], < 100 nM at sodium channel (site 2) and < 100 nM on opioid (μ) receptor.

As for `CC(C)(C)[C@@H](CN[C@H](CN)Cc1ccccc1)NC(=O)Nc1cccc(C(F)(F)F)c1` [Compound 5, 1-{1-[(2-Amino-1-benzyl-ethylamino)-methyl]-2,2-dimethy-propyl}-3-(3-trifluoromethyl-phenyl)-urea], the IC50 on calcium channel (type N) is > 1000 nM; in assay [1], > 1000 nM; on sodium channel (site 2), < 100 nM; on opioid (μ) receptor, > 1000 nM.

Turning to `CN(C(=O)C(NC(=O)Nc1cccc(C(F)(F)F)c1)C(C)(C)C)C1CCN(Cc2ccccc2)C1` (centres unmarked) [Compound 8, N-(1-Benzyl-pyrrolidin-3-yl)-3,3,N-trimethyl-2-[3-(3-trifluoromethyl-phenyl)-ureido]-butyramide], the concentration for half-maximal inhibition (IC50) at calcium channel (type N) is > 1000 nM; in assay [1] it was > 1000 nM; at sodium channel (site 2) it was < 100 nM; at opioid (μ) receptor, > 1000 nM.

In the case of `CN(CC(NC(=O)Nc1cccc(C(F)(F)F)c1)C(C)(C)C)C1CCN(Cc2ccccc2)C1` (centres unmarked) [Compound 9, 1-(1-{[(1-Benzyl-pyrrolidin-3-yl)-methyl-amino]-methyl}-2,2-dimethyl-propyl)-3-(3-trifluoromethyl-phenyl)-urea], the 50% inhibitory concentration (IC50) was > 1000 nM on calcium channel (type N), > 1000 nM in assay [1], < 100 nM at sodium channel (site 2) and > 1000 nM on opioid (μ) receptor.

As to `CN(C(=O)C(NC(=O)Nc1ccc(OC(F)(F)F)cc1)C(C)(C)C)C1CCN(Cc2ccccc2)C1` (centres unmarked) [Compound 10, N-(1-Benzyl-pyrrolidin-3-yl)-3,3,N-trimethyl-2-[3-(4-trifluoromethoxy-phenyl)-ureido]-butyramide], the 50% inhibitory concentration (IC50) is > 1000 nM at calcium channel (type N), > 1000 nM in assay [1], < 1000 nM at sodium channel (site 2) and > 1000 nM on opioid (μ) receptor.

Take `CN(CC(NC(=O)Nc1ccc(OC(F)(F)F)cc1)C(C)(C)C)C1CCN(Cc2ccccc2)C1` (centres unmarked) [Compound 11, 1-(1-{[(1-Benzyl-pyrrolidin-3-yl)-methyl-amino]-methyl}-2,2-dimethyl-propyl)-3-(4-trifluoromethoxy-phenyl)-urea]: the IC50 at calcium channel (type N) was > 1000 nM; in assay [1], > 1000 nM; on sodium channel (site 2), < 100 nM; at opioid (μ) receptor it was > 1000 nM.

With `CC(C)(C)[C@H](NC(=O)Nc1cccc(C(F)(F)F)c1)C(=O)N[C@@H](Cc1ccccc1)C(=O)N1CCNCC1` [Compound 15, N-(1-Benzyl-2-oxo-2-piperazin-1-yl-ethyl)-3,3-dimethyl-2-[3-(3-trifluoromethyl-phenyl) -ureido]-butyramide], the IC50 at calcium channel (type N), at sodium channel (site 2) and on opioid (μ) receptor was > 1000 nM each time.

Turning to `CN(C)CCN(Cc1ccccc1)C(=O)[C@@H](NC(=O)Nc1cccc(C(F)(F)F)c1)C(C)(C)C` [Compound 16, N-Benzyl-N-(2-dimethylamino-ethyl)-3,3-dimethyl-2-[3-(3-trifluoromethyl-phenyl)-ureido]-butyramide], the figures for the IC50 at calcium channel (type N), at sodium channel (site 2) and on opioid (μ) receptor were > 1000 nM, < 1000 nM and > 1000 nM, respectively.

Turning to `CN(C)CCN(Cc1ccccc1)C(=O)[C@@H](NC(=O)Nc1ccc(OC(F)(F)F)cc1)C(C)(C)C` [Compound 17, N-Benzyl-N-(2-dimethylamino-ethyl)-3,3-dimethyl-2-[3-(4trifluoromethoxy-phenyl)-ureido]-butyramide], the results for the 50% inhibitory concentration (IC50) on calcium channel (type N), at sodium channel (site 2) and at opioid (μ) receptor were > 1000 nM, < 100 nM and > 1000 nM, respectively.

As for `CN(C)C[C@H](Cc1ccccc1)NC(=O)[C@@H](NC(=O)Nc1cccc(C(F)(F)F)c1)C(C)(C)C` [Compound 18, N-(1-Benzyl-2-dimethylamino-ethyl)-3,3-dimethyl-2-[3-(3-trifluoromethyl-phenyl)-ureido]-butyramide], the IC50 at calcium channel (type N) was > 1000 nM; in assay [1] it was > 1000 nM; on sodium channel (site 2), < 1000 nM; at opioid (μ) receptor it was < 100 nM.

Take `CC(C)(C)[C@H](NC(=O)Nc1ccc(OC(F)(F)F)cc1)C(=O)N[C@H]1CCN(Cc2ccccc2)C1` [Compound 19, N-(1-Benzyl-pyrrolidin-3-yl)-3,3-dimethyl-2-[3-(4-trifluoromethoxy-phenyl)-ureido]-butyramide]: the IC50 at calcium channel (type N) was > 1000 nM; on sodium channel (site 2), < 1000 nM; on opioid (μ) receptor, > 1000 nM.

For `CN(C)CCN(Cc1ccccc1)C(=O)[C@@H]1CCCN1C(=O)Nc1ccc(OC(F)(F)F)cc1` [Compound 22, Pyrrolidine-1,2-dicarboxylic acid 2-[benzyl-(2-dimethylamino-ethyl)-amide] 1-[(4-trifluoromethoxy-phenyl)-amide]], the IC50 on calcium channel (type N) was > 1000 nM; at sodium channel (site 2) it was < 1000 nM.
